In brackets after ≈: the same amount, converted by molar mass. Activity calls are given as the source filed them. The calls are words filed in the database; no cut-off is given here.
Columns and labels:
Bacillus subtilis [1] = experiment: Antibacterial activity against Bacillus subtilis by agar well diffusion method; format: functional
Staphylococcus aureus [2] = experiment: Antibacterial activity against Staphylococcus aureus by agar well diffusion method; format: functional
Escherichia coli [3] = experiment: Antibacterial activity against Escherichia coli by agar well diffusion method; format: functional
Candida albicans [4] = experiment: Antifungal activity against Candida albicans by agar well diffusion method; format: functional
THP-1 [5] = experiment: Antiinflammatory activity in human PMA-stimulated THP1 cells assessed as inhibition of LPS-induced IL-6 production at 10 uM treated 30 mins before LPS challenge measured after 24 hrs by ELISA; format: functional
THP-1 [6] = experiment: Antiinflammatory activity in human PMA-stimulated THP1 cells assessed as inhibition of LPS-induced TNFalpha production at 10 uM treated 30 mins before LPS challenge measured after 24 hrs by ELISA; format: functional
Aspergillus flavus [7] = experiment: Antifungal activity against Aspergillus flavus by agar well diffusion method; format: functional
Aspergillus niger [8] = experiment: Antifungal activity against Aspergillus niger up to 200 ug/ml by agar well diffusion method; format: functional, organism-based
Salmonella typhimurium [9] = experiment: Antibacterial activity against Salmonella typhimurium by agar well diffusion method; format: functional, Salmonella enterica subsp. enterica serovar Typhimurium; settings: Salmonella enterica
Fusarium solani [10] = experiment: Antifungal activity against Fusarium solani by agar well diffusion method; format: functional
Aspergillus flavus [11] = experiment: Antifungal activity against Aspergillus flavus up to 200 ug/ml by agar well diffusion method; format: functional, organism-based
Candida albicans [12] = experiment: Antifungal activity against Candida albicans up to 200 ug/ml by agar well diffusion method; format: functional, organism-based
Aspergillus niger [13] = experiment: Antifungal activity against Aspergillus niger by agar well diffusion method; format: functional
Staphylococcus aureus [14] = experiment: Antibacterial activity against Staphylococcus aureus up to 200 ug/ml by agar well diffusion method; format: functional, organism-based
Escherichia coli [15] = experiment: Antibacterial activity against Escherichia coli up to 200 ug/ml by agar well diffusion method; format: functional, organism-based
Bacillus subtilis [16] = experiment: Antibacterial activity against Bacillus subtilis up to 200 ug/ml by agar well diffusion method; format: functional, organism-based
Salmonella typhimurium [17] = experiment: Antibacterial activity against Salmonella typhimurium up to 200 ug/ml by agar well diffusion method; format: functional, organism-based; settings: Salmonella enterica subsp. enterica serovar Typhimurium
Fusarium solani [18] = experiment: Antifungal activity against Fusarium solani up to 200 ug/ml by agar well diffusion method; format: functional, organism-based

Structure (SMILES) | MIC (Bacillus subtilis [1]) | MIC (Staphylococcus aureus [2]) | MIC (Escherichia coli [3]) | MIC (Candida albicans [4]) | inhibition at 10 µM (THP-1 [5]) | inhibition at 10 µM (THP-1 [6]) | MIC (Aspergillus flavus [7]) | Activity (Aspergillus niger [8]) | MIC (Salmonella typhimurium [9]) | MIC (Fusarium solani [10]) | Activity (Aspergillus flavus [11]) | Activity (Candida albicans [12]) | MIC (Aspergillus niger [13]) | Activity (Staphylococcus aureus [14]) | Activity (Escherichia coli [15]) | Activity (Bacillus subtilis [16]) | Activity (Salmonella typhimurium [17]) | Activity (Fusarium solani [18])
CSc1ccc(NC(=O)Nc2ccc(-c3cc(Nc4cccc(C(F)(F)F)c4)ncn3)cc2)cc1 | 90 µg/mL (≈ 182 µM) | 75 µg/mL (≈ 151 µM) | 90 µg/mL (≈ 182 µM) | 90 µg/mL (≈ 182 µM) | 0% | 0% | 90 µg/mL (≈ 182 µM) | inactive | 90 µg/mL (≈ 182 µM) | 90 µg/mL (≈ 182 µM) | – | – | – | – | – | – | – | –
Cc1ccc(F)cc1S(=O)(=O)Nc1ccc(-c2cc(Nc3cccc(C(F)(F)F)c3)ncn2)cc1 | 10 µg/mL (≈ 19.9 µM) | 15 µg/mL (≈ 29.9 µM) | 15 µg/mL (≈ 29.9 µM) | 90 µg/mL (≈ 179 µM) | 56% | 48% | 90 µg/mL (≈ 179 µM) | inactive | 15 µg/mL (≈ 29.9 µM) | 90 µg/mL (≈ 179 µM) | – | – | – | – | – | – | – | –
FC(F)(F)c1cccc(Nc2cc(-c3ccc(NC(=S)Nc4ccc(Cl)cc4)cc3)ncn2)c1 | 35 µg/mL (≈ 70 µM) | 35 µg/mL (≈ 70 µM) | 30 µg/mL (≈ 60 µM) | – | 28% | 23% | – | inactive | 30 µg/mL (≈ 60 µM) | 90 µg/mL (≈ 180 µM) | inactive | inactive | – | – | – | – | – | –
O=S(=O)(Nc1ccc(-c2cc(Nc3cccc(C(F)(F)F)c3)ncn2)cc1)c1ccccc1OC(F)(F)F | 10 µg/mL (≈ 18 µM) | 10 µg/mL (≈ 18 µM) | 20 µg/mL (≈ 36.1 µM) | 30 µg/mL (≈ 54.1 µM) | 0% | 0% | 20 µg/mL (≈ 36.1 µM) | – | 10 µg/mL (≈ 18 µM) | 20 µg/mL (≈ 36.1 µM) | – | – | 60 µg/mL (≈ 108 µM) | – | – | – | – | –
Clc1ccc(COC(Cn2ccnc2)c2ccc(Cl)cc2Cl)c(Cl)c1 (stereo not drawn) [MICONAZOLE] | – | – | – | 20 µg/mL (≈ 48.1 µM) | – | – | 20 µg/mL (≈ 48.1 µM) | – | – | 15 µg/mL (≈ 36 µM) | – | – | 15 µg/mL (≈ 36 µM) | – | – | – | – | –
N#Cc1cccc(S(=O)(=O)Nc2ccc(-c3cc(Nc4cccc(C(F)(F)F)c4)ncn3)cc2)c1 | 65 µg/mL (≈ 131 µM) | 40 µg/mL (≈ 80.7 µM) | 25 µg/mL (≈ 50.5 µM) | 55 µg/mL (≈ 111 µM) | 12% | 0% | 35 µg/mL (≈ 70.6 µM) | – | 45 µg/mL (≈ 90.8 µM) | 20 µg/mL (≈ 40.4 µM) | – | – | 20 µg/mL (≈ 40.4 µM) | – | – | – | – | –
Nc1ccc(-c2cc(Nc3cccc(C(F)(F)F)c3)ncn2)cc1 | – | – | – | 80 µg/mL (≈ 242 µM) | 6% | 0% | 80 µg/mL (≈ 242 µM) | – | – | 90 µg/mL (≈ 272 µM) | – | – | 80 µg/mL (≈ 242 µM) | inactive | inactive | inactive | inactive | –
Cc1ccccc1NC(=S)Nc1ccc(-c2cc(Nc3cccc(C(F)(F)F)c3)ncn2)cc1 | – | – | – | – | 0% | 0% | – | inactive | – | – | inactive | inactive | – | inactive | inactive | inactive | inactive | inactive
O=C(Nc1ccc(-c2cc(Nc3cccc(C(F)(F)F)c3)ncn2)cc1)Nc1cccc(C(F)(F)F)c1 | 40 µg/mL (≈ 77.3 µM) | 25 µg/mL (≈ 48.3 µM) | 35 µg/mL (≈ 67.6 µM) | 25 µg/mL (≈ 48.3 µM) | 40% | 28% | 20 µg/mL (≈ 38.7 µM) | – | 80 µg/mL (≈ 155 µM) | 20 µg/mL (≈ 38.7 µM) | – | – | 35 µg/mL (≈ 67.6 µM) | – | – | – | – | –
O=C(O)c1cn(C2CC2)c2cc(N3CCNCC3)c(F)cc2c1=O [CIPROFLOXACIN] | 15 µg/mL (≈ 45.3 µM) | 20 µg/mL (≈ 60.4 µM) | 15 µg/mL (≈ 45.3 µM) | – | – | – | – | – | 20 µg/mL (≈ 60.4 µM) | – | – | – | – | – | – | – | – | –
FC(F)(F)c1cccc(Nc2cc(-c3ccc(NC(=S)Nc4cc(C(F)(F)F)cc(C(F)(F)F)c4)cc3)ncn2)c1 | 25 µg/mL (≈ 41.6 µM) | 20 µg/mL (≈ 33.3 µM) | 25 µg/mL (≈ 41.6 µM) | 90 µg/mL (≈ 150 µM) | 0% | 0% | – | inactive | 25 µg/mL (≈ 41.6 µM) | 75 µg/mL (≈ 125 µM) | inactive | – | – | – | – | – | – | –
COc1ccc(NC(=S)Nc2ccc(-c3cc(Nc4cccc(C(F)(F)F)c4)ncn3)cc2)cc1 | – | – | – | 80 µg/mL (≈ 161 µM) | 8% | 3% | 90 µg/mL (≈ 182 µM) | inactive | – | 90 µg/mL (≈ 182 µM) | – | – | – | inactive | inactive | inactive | inactive | –
O=[N+]([O-])c1ccc(-c2cc(Cl)ncn2)cc1 | – | – | – | 90 µg/mL (≈ 382 µM) | 0% | 0% | 90 µg/mL (≈ 382 µM) | – | – | – | – | – | 90 µg/mL (≈ 382 µM) | inactive | inactive | inactive | inactive | inactive

Reference: ChEMBL document CHEMBL2021896, “A novel pyrimidine derivatives with aryl urea, thiourea and sulfonamide moieties: synthesis, anti-inflammatory and antimicrobial evaluation” (2012)
